Laboratory results from ChEMBL document CHEMBL5715949, “Discovery of a selective irreversible BMX inhibitor for prostate cancer” (ACS Chem Biol, 2013).
Active and inactive are the calls of the source. No cut-off for these calls is given here.

Key:
[1] = molecular target: Serine/threonine-protein kinase Nek3 (Homo sapiens) (UniProt P51956); assay: Inhibition of NEK3 (unknown origin) assessed as remaining activity at 1 uM by Kinome scan method relative to control
[2] = molecular target: Phosphorylase b kinase gamma catalytic chain, liver/testis isoform (Homo sapiens) (UniProt P15735); assay: Inhibition of PHKG2 (unknown origin) assessed as remaining activity at 1 uM by Kinome scan method relative to control
[3] = molecular target: Cyclin-dependent kinase 18 (Homo sapiens) (UniProt Q07002); assay: Inhibition of PCTK3 (unknown origin) assessed as remaining activity at 1 uM by Kinome scan method relative to control
[4] = test system: BaF3; assay: Antiproliferative activity against mouse BaF3 cells expressing TEL-fused JAK2 assessed growth inhibition incubated for 2 to 5 days by CellTiter-Glo assay; format: functional; settings: time 2-5 day
[5] = test system: Tyrosine-protein kinase ABL1 (Homo sapiens), P00519 [H396P]; assay: Inhibition of ABL1 H396P mutant (unknown origin) assessed as remaining activity at 1 uM by Kinome scan method relative to control
[6] = molecular target: RAC-gamma serine/threonine-protein kinase (Homo sapiens) (UniProt Q9Y243); assay: Inhibition of AKT3 (unknown origin) assessed as remaining activity at 1 uM by Kinome scan method relative to control
[7] = molecular target: Aurora kinase A (Homo sapiens) (UniProt O14965); assay: Inhibition of AURKA (unknown origin) assessed as remaining activity at 1 uM by Kinome scan method relative to control
[8] = molecular target: BMP-2-inducible protein kinase (Homo sapiens) (UniProt Q9NSY1); assay: Inhibition of BIKE (unknown origin) assessed as remaining activity at 1 uM by Kinome scan method relative to control
[9] = molecular target: Serine/threonine-protein kinase BRSK2 (Homo sapiens) (UniProt Q8IWQ3); assay: Inhibition of BRSK2 (unknown origin) assessed as remaining activity at 1 uM by Kinome scan method relative to control
[10] = molecular target: Cyclin-dependent kinase-like 2 (Homo sapiens) (UniProt Q92772); assay: Inhibition of CDKL2 (unknown origin) assessed as remaining activity at 1 uM by Kinome scan method relative to control
[11] = molecular target: Tyrosine-protein kinase CSK (Homo sapiens) (UniProt P41240); assay: Inhibition of CSK (unknown origin) assessed as remaining activity at 1 uM by Kinome scan method relative to control
[12] = molecular target: Ephrin type-A receptor 6 (Homo sapiens) (UniProt Q9UF33); assay: Inhibition of EPHA6 (unknown origin) assessed as remaining activity at 1 uM by Kinome scan method relative to control
[13] = test system: Receptor-type tyrosine-protein kinase FLT3 (Homo sapiens), P36888 [N841I]; assay: Inhibition of FLT3 N841I mutant (unknown origin) assessed as remaining activity at 1 uM by Kinome scan method relative to control
[14] = molecular target: Cyclin-G-associated kinase (Homo sapiens) (UniProt O14976); assay: Inhibition of GAK (unknown origin) assessed as remaining activity at 1 uM by Kinome scan method relative to control
[15] = molecular target: Rhodopsin kinase GRK7 (Homo sapiens) (UniProt Q8WTQ7); assay: Inhibition of GRK7 (unknown origin) assessed as remaining activity at 1 uM by Kinome scan method relative to control
[16] = molecular target: Insulin receptor (Homo sapiens) (UniProt P06213); assay: Inhibition of INSR (unknown origin) assessed as remaining activity at 1 uM by Kinome scan method relative to control
[17] = molecular target: Tyrosine-protein kinase JAK1 (Homo sapiens) (UniProt P23458); assay: Inhibition of JAK1 JH2 domain (unknown origin) assessed as remaining activity at 1 uM by Kinome scan method relative to control
[18] = molecular target: LIM domain kinase 2 (Homo sapiens) (UniProt P53671); assay: Inhibition of LIMK2 (unknown origin) assessed as remaining activity at 1 uM by Kinome scan method relative to control
[19] = molecular target: Dual specificity mitogen-activated protein kinase kinase 2 (Homo sapiens) (UniProt P36507); assay: Inhibition of MEK2 (unknown origin) assessed as remaining activity at 1 uM by Kinome scan method relative to control
[20] = molecular target: Phosphatidylinositol 4,5-bisphosphate 3-kinase catalytic subunit gamma isoform (Homo sapiens) (UniProt P48736); assay: Inhibition of PIK3CG (unknown origin) assessed as remaining activity at 1 uM by Kinome scan method relative to control
[21] = molecular target: Phosphatidylinositol 4-kinase beta (Homo sapiens) (UniProt Q9UBF8); assay: Inhibition of PIK4CB (unknown origin) assessed as remaining activity at 1 uM by Kinome scan method relative to control
[22] = molecular target: Phosphatidylinositol 5-phosphate 4-kinase type-2 gamma (Homo sapiens) (UniProt Q8TBX8); assay: Inhibition of PIP5K2C (unknown origin) assessed as remaining activity at 1 uM by Kinome scan method relative to control
[23] = molecular target: cAMP-dependent protein kinase catalytic subunit beta (Homo sapiens) (UniProt P22694); assay: Inhibition of PKAC-beta (unknown origin) assessed as remaining activity at 1 uM by Kinome scan method relative to control
[24] = molecular target: Serine/threonine-protein kinase PLK2 (Homo sapiens) (UniProt Q9NYY3); assay: Inhibition of PLK2 (unknown origin) assessed as remaining activity at 1 uM by Kinome scan method relative to control
[25] = molecular target: cAMP-dependent protein kinase catalytic subunit PRKX (Homo sapiens) (UniProt P51817); assay: Inhibition of PRKX (unknown origin) assessed as remaining activity at 1 uM by Kinome scan method relative to control
[26] = molecular target: Proto-oncogene tyrosine-protein kinase ROS (Homo sapiens) (UniProt P08922); assay: Inhibition of ROS1 (unknown origin) assessed as remaining activity at 1 uM by Kinome scan method relative to control
[27] = molecular target: Ribosomal protein S6 kinase alpha-3 (Homo sapiens) (UniProt P51812); assay: Inhibition of N-terminal kinase domain RSK2 (unknown origin) assessed as remaining activity at 1 uM by Kinome scan method relative to control
[28] = molecular target: Proto-oncogene tyrosine-protein kinase Src (Homo sapiens) (UniProt P12931); assay: Inhibition of SRC (unknown origin) assessed as remaining activity at 1 uM by Kinome scan method relative to control
[29] = molecular target: Non-receptor tyrosine-protein kinase TYK2 (Homo sapiens) (UniProt P29597); assay: Inhibition of TYK2 JH1 domain (unknown origin) assessed as remaining activity at 1 uM by Kinome scan method relative to control
[30] = Down regulation of BMX protein expression in human RV-1 cells expressing BMX C496S mutant assessed protein expression level at 2.5 uM pre incubated for 4 hrs followed by compound wash out and additon of CHX and measured after 16 hrs by immunoblot analysis (reference value: 1.01 to 1.13); format: functional
[31] = test system: RV-1; assay: Antiproliferative activity against human RV-1 cells assessed as reduction in cell viability at 500 to 2500 nM incubated for 5 days in presence of <25 nM MK2206 by CellTiter-Glo assay; format: functional, cell-based; settings: dose 500-2500 nM, time 5.0 day
[32] = Inhibition of PI3K/AKT/mTOR signalling pathway in human RV-1 cells assessed as decrease in AKT phosphorylation at T308 residue at 2.5 uM incubated for 5 days by immunoblot analysis; format: cell-based; settings: time 5.0 day

Sequence of Rhodopsin kinase GRK7 (Homo sapiens) (Q8WTQ7 whole entry): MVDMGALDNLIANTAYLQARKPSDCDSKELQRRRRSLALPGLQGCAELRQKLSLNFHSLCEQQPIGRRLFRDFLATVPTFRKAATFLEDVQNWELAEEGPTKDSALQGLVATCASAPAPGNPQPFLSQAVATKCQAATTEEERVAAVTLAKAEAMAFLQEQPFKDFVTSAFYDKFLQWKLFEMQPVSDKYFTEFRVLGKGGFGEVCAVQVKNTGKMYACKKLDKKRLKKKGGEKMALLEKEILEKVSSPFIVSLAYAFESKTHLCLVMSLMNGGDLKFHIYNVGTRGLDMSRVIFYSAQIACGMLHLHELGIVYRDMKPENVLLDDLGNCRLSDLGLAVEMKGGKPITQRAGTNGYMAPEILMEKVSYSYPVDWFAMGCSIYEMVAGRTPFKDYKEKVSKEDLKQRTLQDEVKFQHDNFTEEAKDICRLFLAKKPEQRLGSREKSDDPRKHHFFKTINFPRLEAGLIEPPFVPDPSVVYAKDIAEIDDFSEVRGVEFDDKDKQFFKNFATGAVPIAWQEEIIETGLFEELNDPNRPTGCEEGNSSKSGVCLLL
Sequence of Proto-oncogene tyrosine-protein kinase Src (Homo sapiens) (P12931 2-536 limits assumed): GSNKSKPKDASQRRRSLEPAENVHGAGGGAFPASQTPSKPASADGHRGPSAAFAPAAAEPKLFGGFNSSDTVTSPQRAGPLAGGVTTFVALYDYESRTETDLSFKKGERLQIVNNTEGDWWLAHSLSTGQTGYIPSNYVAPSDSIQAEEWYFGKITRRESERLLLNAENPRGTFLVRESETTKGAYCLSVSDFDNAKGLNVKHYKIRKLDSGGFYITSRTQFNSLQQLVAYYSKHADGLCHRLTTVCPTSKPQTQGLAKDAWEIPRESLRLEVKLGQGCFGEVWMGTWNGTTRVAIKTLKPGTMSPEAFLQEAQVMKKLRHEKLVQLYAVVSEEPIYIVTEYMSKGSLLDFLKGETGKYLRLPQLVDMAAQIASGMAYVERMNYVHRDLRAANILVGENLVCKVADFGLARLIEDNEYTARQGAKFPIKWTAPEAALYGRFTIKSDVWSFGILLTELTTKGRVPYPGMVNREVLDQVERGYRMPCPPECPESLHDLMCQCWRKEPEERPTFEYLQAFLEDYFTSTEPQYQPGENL
Sequence of Phosphatidylinositol 4,5-bisphosphate 3-kinase catalytic subunit gamma isoform (Homo sapiens) (P48736 whole entry, looked up, canonical isoform): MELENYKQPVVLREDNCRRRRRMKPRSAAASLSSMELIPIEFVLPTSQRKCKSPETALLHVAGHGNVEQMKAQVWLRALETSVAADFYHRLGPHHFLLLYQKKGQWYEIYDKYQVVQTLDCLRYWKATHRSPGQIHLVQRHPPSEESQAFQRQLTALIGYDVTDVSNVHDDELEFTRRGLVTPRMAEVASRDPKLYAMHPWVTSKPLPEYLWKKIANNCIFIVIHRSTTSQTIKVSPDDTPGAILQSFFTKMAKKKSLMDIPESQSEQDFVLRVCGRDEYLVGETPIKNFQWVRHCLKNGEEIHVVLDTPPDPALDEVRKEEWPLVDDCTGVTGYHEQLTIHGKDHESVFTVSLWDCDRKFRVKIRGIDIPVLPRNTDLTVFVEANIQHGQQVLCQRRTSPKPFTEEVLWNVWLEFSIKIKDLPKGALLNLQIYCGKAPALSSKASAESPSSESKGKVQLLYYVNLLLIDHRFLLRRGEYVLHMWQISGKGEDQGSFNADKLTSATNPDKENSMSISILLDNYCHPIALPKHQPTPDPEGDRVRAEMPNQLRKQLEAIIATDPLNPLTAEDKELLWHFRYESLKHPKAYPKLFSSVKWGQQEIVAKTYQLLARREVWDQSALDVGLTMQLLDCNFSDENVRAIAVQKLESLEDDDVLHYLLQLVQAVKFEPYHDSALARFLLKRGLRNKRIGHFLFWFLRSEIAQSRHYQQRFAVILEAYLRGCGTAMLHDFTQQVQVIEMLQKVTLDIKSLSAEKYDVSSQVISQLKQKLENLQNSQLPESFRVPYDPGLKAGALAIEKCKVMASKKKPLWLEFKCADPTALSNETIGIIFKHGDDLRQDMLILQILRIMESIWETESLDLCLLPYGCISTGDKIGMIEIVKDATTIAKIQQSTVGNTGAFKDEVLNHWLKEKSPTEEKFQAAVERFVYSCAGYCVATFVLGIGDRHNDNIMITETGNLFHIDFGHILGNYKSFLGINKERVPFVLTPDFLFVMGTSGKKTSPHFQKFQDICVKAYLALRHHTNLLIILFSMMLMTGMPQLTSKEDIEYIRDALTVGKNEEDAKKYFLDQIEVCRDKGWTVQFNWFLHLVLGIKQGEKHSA
Sequence of Proto-oncogene tyrosine-protein kinase ROS (Homo sapiens) (P08922 whole entry, the tested form may be a part): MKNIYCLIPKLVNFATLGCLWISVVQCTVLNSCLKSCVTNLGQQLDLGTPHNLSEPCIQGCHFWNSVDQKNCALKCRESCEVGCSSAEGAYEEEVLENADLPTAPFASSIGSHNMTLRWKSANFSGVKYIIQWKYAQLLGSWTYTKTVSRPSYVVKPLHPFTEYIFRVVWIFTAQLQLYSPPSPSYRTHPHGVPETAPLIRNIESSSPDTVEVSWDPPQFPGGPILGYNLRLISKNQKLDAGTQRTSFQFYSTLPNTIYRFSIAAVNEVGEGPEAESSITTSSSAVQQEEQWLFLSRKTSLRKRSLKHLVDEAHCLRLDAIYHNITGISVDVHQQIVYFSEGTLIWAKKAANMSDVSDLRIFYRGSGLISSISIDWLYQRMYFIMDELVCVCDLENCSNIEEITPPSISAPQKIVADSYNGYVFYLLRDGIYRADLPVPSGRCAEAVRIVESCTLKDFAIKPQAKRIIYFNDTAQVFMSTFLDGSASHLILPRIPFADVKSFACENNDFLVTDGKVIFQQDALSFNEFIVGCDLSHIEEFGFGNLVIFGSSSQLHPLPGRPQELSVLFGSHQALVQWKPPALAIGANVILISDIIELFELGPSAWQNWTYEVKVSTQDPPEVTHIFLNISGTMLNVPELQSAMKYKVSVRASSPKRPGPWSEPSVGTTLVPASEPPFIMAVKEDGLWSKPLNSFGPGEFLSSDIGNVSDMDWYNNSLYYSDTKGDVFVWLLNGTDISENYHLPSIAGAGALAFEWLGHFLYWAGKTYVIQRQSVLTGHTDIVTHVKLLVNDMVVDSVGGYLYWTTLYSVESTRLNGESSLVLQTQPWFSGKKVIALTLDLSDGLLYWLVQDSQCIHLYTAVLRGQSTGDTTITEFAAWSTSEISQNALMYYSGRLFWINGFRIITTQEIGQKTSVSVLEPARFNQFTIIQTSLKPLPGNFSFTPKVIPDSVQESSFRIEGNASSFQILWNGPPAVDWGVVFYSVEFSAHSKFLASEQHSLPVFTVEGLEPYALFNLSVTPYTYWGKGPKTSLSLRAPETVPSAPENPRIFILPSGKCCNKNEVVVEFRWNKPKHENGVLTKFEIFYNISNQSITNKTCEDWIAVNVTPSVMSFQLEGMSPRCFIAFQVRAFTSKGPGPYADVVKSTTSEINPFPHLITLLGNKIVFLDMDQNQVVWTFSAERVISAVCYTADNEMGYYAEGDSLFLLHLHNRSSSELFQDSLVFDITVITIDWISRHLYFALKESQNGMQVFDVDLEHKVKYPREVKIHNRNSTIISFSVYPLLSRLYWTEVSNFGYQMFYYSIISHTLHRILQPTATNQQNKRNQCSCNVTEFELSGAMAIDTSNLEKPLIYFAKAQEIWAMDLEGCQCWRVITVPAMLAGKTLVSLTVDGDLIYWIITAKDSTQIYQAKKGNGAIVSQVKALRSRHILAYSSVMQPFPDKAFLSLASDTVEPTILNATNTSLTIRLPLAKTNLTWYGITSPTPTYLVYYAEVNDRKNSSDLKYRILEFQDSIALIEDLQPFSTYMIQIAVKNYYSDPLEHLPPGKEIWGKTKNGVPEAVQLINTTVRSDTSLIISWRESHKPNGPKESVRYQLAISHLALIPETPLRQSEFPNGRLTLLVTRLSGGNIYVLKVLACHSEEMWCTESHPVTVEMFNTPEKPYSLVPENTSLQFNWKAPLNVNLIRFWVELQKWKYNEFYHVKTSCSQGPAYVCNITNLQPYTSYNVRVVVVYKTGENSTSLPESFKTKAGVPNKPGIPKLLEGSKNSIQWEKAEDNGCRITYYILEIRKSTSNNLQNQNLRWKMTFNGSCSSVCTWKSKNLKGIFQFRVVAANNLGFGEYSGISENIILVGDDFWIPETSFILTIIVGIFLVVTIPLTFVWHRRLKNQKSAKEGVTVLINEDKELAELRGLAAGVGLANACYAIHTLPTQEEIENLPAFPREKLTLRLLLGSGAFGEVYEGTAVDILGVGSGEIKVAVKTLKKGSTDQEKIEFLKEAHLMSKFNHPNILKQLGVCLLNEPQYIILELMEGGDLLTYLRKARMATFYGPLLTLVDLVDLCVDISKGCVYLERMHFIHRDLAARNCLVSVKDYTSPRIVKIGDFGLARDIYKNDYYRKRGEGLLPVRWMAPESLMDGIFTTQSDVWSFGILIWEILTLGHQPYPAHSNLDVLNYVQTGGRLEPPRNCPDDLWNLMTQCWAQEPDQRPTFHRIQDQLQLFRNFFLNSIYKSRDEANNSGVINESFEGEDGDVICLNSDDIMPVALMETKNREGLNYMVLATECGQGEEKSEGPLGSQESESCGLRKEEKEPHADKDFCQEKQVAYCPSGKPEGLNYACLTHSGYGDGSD
Sequence of cAMP-dependent protein kinase catalytic subunit PRKX (Homo sapiens) (P51817 whole entry): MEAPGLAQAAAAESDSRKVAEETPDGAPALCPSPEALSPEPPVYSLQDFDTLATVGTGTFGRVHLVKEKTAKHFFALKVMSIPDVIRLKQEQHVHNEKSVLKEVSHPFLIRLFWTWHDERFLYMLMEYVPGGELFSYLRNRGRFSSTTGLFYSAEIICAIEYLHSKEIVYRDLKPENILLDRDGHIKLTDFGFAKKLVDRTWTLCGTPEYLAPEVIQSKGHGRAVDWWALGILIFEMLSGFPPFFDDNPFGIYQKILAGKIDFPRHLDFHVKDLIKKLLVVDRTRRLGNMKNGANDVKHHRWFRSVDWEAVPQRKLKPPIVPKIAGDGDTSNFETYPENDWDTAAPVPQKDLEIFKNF

## C=CC(=O)Nc1cc(-n2c(=O)ccc3cnc4ccc(-c5ccc(NS(C)(=O)=O)cc5)cc4c32)ccc1C
[1]
  Activity: 98%
[2]
  Activity: 74%
[3]
  Activity: 83%
[4]
  GI50: 5.83 µM
[5]
  Activity: 74%
[6]
  Activity: 75%
[7]
  Activity: 75%
[8]
  Activity: 76%
[9]
  Activity: 84%
[10]
  Activity: 93%
[11]
  Activity: 99%
[12]
  Activity: 96%
[13]
  Activity: 85%
[14]
  Activity: 74%
[15]
  Activity: 75%
[16]
  Activity: 93%
[17]
  Activity: 99%
[18]
  Activity: 92%
[19]
  Activity: 96%
[20]
  Activity: 2.8%
[21]
  Activity: 79%
[22]
  Activity: 5.6%
[23]
  Activity: 79%
[24]
  Activity: 72%
[25]
  Activity: 77%
[26]
  Activity: 81%
[27]
  Activity: 81%
[28]
  Activity: 92%
[29]
  Activity: 80%
[30]
  Activity: 0.74
[31]
  Activity: Active
[32]
  inhibition: Active
